Data set [1] is described as follows: Pharmacokinetics in tumor free Balb/C mice. It is filed as in vivo. The note with it: Released from Compound 9; single injection 20 mg/kg Compound 9, Balb/C mice, plasma. From the text: Pharmacokinetic analysis was done using non-compartmental analysis (WinNonlin).
Data set [2] in a line: Solubility in aqueous saline solution.

`CCc1c2c(nc3ccc(O)cc13)-c1cc3c(c(=O)n1C2)COC(=O)[C@]3(O)CC`: in data set [1], the “Terminal t 1/2” value stood at 14.2 h. Also, in data set [2], the “Solubility in Saline” value was “^a7-ethyl-10-hydroxycamptothecin is not soluble in saline”.

For the origin of these results see patent publication US20120171201A1.
